In patent US20240247015A1, “PHOSPHORUS DERIVATIVES AS NOVEL SOS1 INHIBITORS” (BAYER AKTIENGESELLSCHAFT, priority 2021, published 2024):

Biological target: interaction of human SOS1 (SOS1) with human K-RasG12C (Homo sapiens (Human), UniProt Q07889)
Test: Biochemical assay: hK-RasG12C interaction assay with hSOS1 (HTRF)
Assay type: binding
Settings: GST-hK-RasG12C with His-hSOS1, 60 min incubation at 20° C., mean, read-out: K-RasG12C - SOS interaction assay IC50 (mean)
Procedure, shortened: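 Compounds, duplicates at 11 concentrations from 0.073 nM to 20 µM, were preincubated 2 min with 10 nM GST-hK-RasG12C, then 20 nM His-hSOS1 was added, all at 20 °C. After 60 min, 665/620 nm HTRF ratio normalized to DMSO and SOS1-free controls; IC50 by 4-parameter fit.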

Chain of interaction of human SOS1 (SOS1) with human K-RasG12C (Q07889 564-1049 limits assumed): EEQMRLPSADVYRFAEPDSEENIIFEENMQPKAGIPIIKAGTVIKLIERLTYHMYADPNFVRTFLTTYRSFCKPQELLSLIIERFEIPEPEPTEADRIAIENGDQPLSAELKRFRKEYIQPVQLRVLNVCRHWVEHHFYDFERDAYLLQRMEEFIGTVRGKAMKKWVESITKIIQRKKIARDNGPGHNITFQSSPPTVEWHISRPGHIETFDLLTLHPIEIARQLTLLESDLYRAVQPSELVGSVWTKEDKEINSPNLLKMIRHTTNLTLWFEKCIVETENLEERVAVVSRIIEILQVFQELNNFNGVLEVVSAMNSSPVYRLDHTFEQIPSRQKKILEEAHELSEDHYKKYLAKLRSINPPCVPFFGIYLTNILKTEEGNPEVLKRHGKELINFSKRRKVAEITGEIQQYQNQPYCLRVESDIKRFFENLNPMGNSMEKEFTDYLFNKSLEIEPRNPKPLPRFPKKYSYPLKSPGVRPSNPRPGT

IC50	Compound
117 nM	Cc1nc(N[C@H](C)c2cccc(C(F)(F)F)c2C)c2cc(P3(=O)CCN(Cc4ccccc4)CC3)ccc2n1 [Example 105, 1-benzyl-4-[2-methyl-4-({(1R)-1-[2-methyl-3-(trifluoromethyl)phenyl]ethyl}amino)quinazolin-6-yl]-1,4lambda^5-azaphosphinan-4-one]
16.1 nM	Cc1nc(N[C@H](C)c2cccc(C(F)(F)F)c2C)c2cc(P(C)(C)=O)ccc2n1 [Example 106, 6-(dimethylphosphoryl)-2-methyl-N-{(1R)-1-[2-methyl-3-(trifluoromethyl)phenyl]ethyl}quinazolin-4-amine]
20.5 nM	Cc1nc(N[C@H](C)c2cccc(C(F)F)c2F)c2cc(P3(=O)CCCC3)ncc2n1 [Example 107, 1-[4-{{(1R)-1-[3-(difluoromethyl)-2-fluorophenyl]ethyl}amino)-2-methylpyrido[3,4-d]pyrimidin-6-yl]-1lambda^5-phospholan-1-one]
153 nM	Cc1nc(N[C@H](C)c2cccc(C(F)F)c2F)c2cc(P(=O)(C(C)C)C(C)C)ncc2n1 [Example 108, N-{(1R)-1-[3-(difluoromethyl)-2-fluorophenyl]ethyl}-6-[di(propan-2-yl)phosphoryl]-2-methylpyrido[3,4-d]pyrimidin-4-amine]
33.3 nM	Cc1nc(N[C@H](C)c2cccc(C(F)(F)C(=O)C(C)C)c2F)c2cc(P(C)(C)=O)ncc2n1 [Example 109, 1-{3-[(1R)-1-{[6-(dimethylphosphoryl)-2-methylpyrido[3,4-d]pyrimidin-4-yl]amino}ethyl]-2-fluorophenyl}-1,1-difluoro-3-methylbutan-2-one]
56.8 nM	Cc1nc(N[C@H](C)c2cccc(C(F)(F)C(=O)C(C)(C)C)c2F)c2cc(P(C)(C)=O)ncc2n1 [Example 110, 1-{3-[(1R)-1-{[6-(dimethylphosphoryl)-2-methylpyrido[3,4-d]pyrimidin-4-yl]amino}ethyl]-2-fluorophenyl}-1,1-difluoro-3,3-dimethylbutan-2-one]
66.5 nM	Cc1nc(N[C@H](C)c2cccc(C(F)F)c2F)c2cc(P(C)(=O)C(C)C)ncc2n1 (stereo partly drawn) [Example 114, N-{(1R)-1-[3-(difluoromethyl)-2-fluorophenyl]ethyl}-2-methyl-6-[methyl(propan-2-yl)phosphoryl]pyrido[3,4-d]pyrimidin-4-amine]
56.9 nM	CCP(C)(=O)c1cc2c(N[C@H](C)c3cccc(C(F)F)c3F)nc(C)nc2cn1 (stereo partly drawn) [Example 117, N-{(1R)-1-[3-(difluoromethyl)-2-fluorophenyl]ethyl}-6-[ethyl(methyl)phosphoryl]-2-methylpyrido[3,4-d]pyrimidin-4-amine]
36.7 nM	Cc1nc(N[C@H](C)c2cccc(C(F)(F)F)c2Cl)c2cc(P(C)(C)=O)ncc2n1 [Example 120, N-{(1R)-1-[2-chloro-3-(trifluoromethyl)phenyl]ethyl}-6-(dimethylphosphoryl)-2-methylpyrido[3,4-d]pyrimidin-4-amine]
87.1 nM	COC(C)(C)C(F)(F)c1cccc([C@@H](C)Nc2nc(C)nc3cnc(P(C)(C)=O)cc23)c1F [Example 121, N-{(1R)-1-[3-(1,1-difluoro-2-methoxy-2-methylpropyl)-2-fluorophenyl]ethyl}-6-(dimethylphosphoryl)-2-methylpyrido[3,4-d]pyrimidin-4-amine]
62.6 nM	COC(C)(C)C(F)(F)c1cccc([C@@H](C)Nc2nc(C)nc3cnc(P4(=O)CCCC4)cc23)c1F [Example 122, 1-[4-({(1R)-1-[3-(1,1-difluoro-2-methoxy-2-methylpropyl)-2-fluorophenyl]ethyl}amino)-2-methylpyrido[3,4-d]pyrimidin-6-yl]-1lambda^5-phospholan-1-one]
59 nM	CCP(=O)(CC)c1cc2c(N[C@H](C)c3cccc(C(F)(F)C(C)(C)O)c3F)nc(C)nc2cn1 [Example 123, 1-{3-[(1R)-1-{[6-(diethylphosphoryl)-2-methylpyrido[3,4-d]pyrimidin-4-yl]amino}ethyl]-2-fluorophenyl}-1,1-difluoro-2-methylpropan-2-ol]
16.7 nM	Cc1nc(N[C@H](C)c2cccc(C(F)(F)CO)c2F)c2cc(P(C)(C)=O)nc(C)c2n1 [Example 124, 2-{3-[(1R)-1-{[6-(dimethylphosphoryl)-2,8-dimethylpyrido[3,4-d]pyrimidin-4-yl]amino}ethyl]-2-fluorophenyl}-2,2-difluoroethan-1-ol]
44.3 nM	Cc1nc(N[C@H](C)c2cccc(C(F)F)c2F)c2cc(P(C)(C)=O)c(C(F)(F)F)nc2n1 [Example 125, N-{(1R)-1-[3-(difluoromethyl)-2-fluorophenyl]ethyl}-6-(dimethylphosphoryl)-2-methyl-7-(trifluoromethyl)pyrido[2,3-d]pyrimidin-4-amine]
9.24 nM	Cc1nc(N[C@H](C)c2cccc(C(F)F)c2F)c2cc(P3(=O)CCCC3)c(C)nc2n1 [Example 126, 1-[4-{{(1R)-1-[3-(difluoromethyl)-2-fluorophenyl]ethyl}amino)-2,7-dimethylpyrido[2,3-d]pyrimidin-6-yl]-1lambda^5-phospholan-1-one]
23.4 nM	Cc1nc(N[C@H](C)c2cccc(C(F)F)c2F)c2cc(P3(=O)CCCC3)ccc2n1 [Example 127, 1-[4-{{(1R)-1-[3-(difluoromethyl)-2-fluorophenyl]ethyl}amino)-2-methylquinazolin-6-yl]-1lambda^5-phospholan-1-one]
20.9 nM	Cc1nc(N[C@H](C)c2cccc(C(F)F)c2F)c2cc(P(C)(C)=O)ccc2n1 [Example 128, N-{(1R)-1-[3-(difluoromethyl)-2-fluorophenyl]ethyl}-6-(dimethylphosphoryl)-2-methylquinazolin-4-amine]
132 nM	Cc1nc(N[C@H](C)c2cccc(C(F)F)c2F)c2cc(P(=O)(C(C)C)C(C)C)c(C)nc2n1 [Example 129, N-{(1R)-1-[3-(difluoromethyl)-2-fluorophenyl]ethyl}-6-[di(propan-2-yl)phosphoryl]-2,7-dimethylpyrido[2,3-d]pyrimidin-4-amine]
16.1 nM	CCP(C)(=O)c1cc2c(N[C@H](C)c3cccc(C(F)(F)CO)c3F)nc(C)nc2cn1 (stereo partly drawn) [Example 130, 2-{3-[(1R)-1-{{6-[ethyl(methyl)phosphoryl]-2-methylpyrido[3,4-d]pyrimidin-4-yl}amino)ethyl]-2-fluorophenyl}-2,2-difluoroethan-1-ol]
6.01 nM	[2H]C([2H])([2H])[C@]([2H])(Nc1nc(C)nc2cnc(P3(=O)CCN(C(C)=O)CC3)cc12)c1cccc(C(F)(F)F)c1C [Example 138, 1-acetyl-4-(2-methyl-4-{[(1S)-1-[2-methyl-3-(trifluoromethyl)phenyl](^2H4)ethyl]amino}pyrido[3,4-d]pyrimidin-6-yl)-1,4lambda^5-azaphosphinan-4-one]
5.4 nM	COCC(F)(F)c1cccc([C@@H](C)Nc2nc(C)nc3cnc(P4(=O)CCN(C(C)=O)CC4)cc23)c1F [Example 139, 1-acetyl-4-[4-({(1R)-1-[3-(1,1-difluoro-2-methoxyethyl)-2-fluorophenyl]ethyl}amino)-2-methylpyrido[3,4-d]pyrimidin-6-yl]-1,4lambda^5-azaphosphinan-4-one]
11.4 nM	COC(C)(C)C(F)(F)c1cccc([C@@H](C)Nc2nc(C)nc3cnc(P4(=O)CCN(C(C)=O)CC4)cc23)c1F [Example 140, 1-acetyl-4-[4-({(1R)-1-[3-(1,1-difluoro-2-methoxy-2-methylpropyl)-2-fluorophenyl]ethyl}amino)-2-methylpyrido[3,4-d]pyrimidin-6-yl]-1,4lambda^5-azaphosphinan-4-one]
12.8 nM	CC(=O)N1CCP(=O)(c2cc3c(N[C@H](C)c4cccc(C(C)(F)F)c4)nc(C)nc3cn2)CC1 [Example 141, 1-acetyl-4-[4-({(1R)-1-[3-(1,1-difluoroethyl)phenyl]ethyl}amino)-2-methylpyrido[3,4-d]pyrimidin-6-yl]-1,4lambda^5-azaphosphinan-4-one]
6.3 nM	CC(=O)N1CCP(=O)(c2cc3c(N[C@H](C)c4cccc(C(F)(F)F)c4F)nc(C)nc3cn2)CC1 [Example 142, 1-acetyl-4-[4-{{(1R)-1-[2-fluoro-3-(trifluoromethyl)phenyl]ethyl}amino)-2-methylpyrido[3,4-d]pyrimidin-6-yl]-1,4lambda^5-azaphosphinan-4-one]
12.6 nM	COCC(F)(F)c1cccc([C@@H](C)Nc2nc(C)nc3cnc(P4(=O)CCN(C(C)=O)CC4)cc23)c1 [Example 143, 1-acetyl-4-[4-({(1R)-1-[3-(1,1-difluoro-2-methoxyethyl)phenyl]ethyl}amino)-2-methylpyrido[3,4-d]pyrimidin-6-yl]-1,4lambda^5-azaphosphinan-4-one]
1.97 nM	COc1nc2nc(C)nc(N[C@H](C)c3cccc(C(F)(F)F)c3C)c2cc1P1(=O)CCN(C(C)=O)CC1 [Example 144, 1-acetyl-4-[7-methoxy-2-methyl-4-({(1R)-1-[2-methyl-3-(trifluoromethyl)phenyl]ethyl}amino)pyrido[2,3-d]pyrimidin-6-yl]-1,4lambda^5-azaphosphinan-4-one]
4.35 nM	CC(=O)N1CCP(=O)(c2cc3c(N[C@H](C)c4cccc(C(F)(F)F)c4C)nc(C)nc3nc2C)CC1 [Example 145, 1-acetyl-4-[2,7-dimethyl-4-({(1R)-1-[2-methyl-3-(trifluoromethyl)phenyl]ethyl}amino)pyrido[2,3-d]pyrimidin-6-yl]-1,4lambda^5-azaphosphinan-4-one]
81 nM	CC(=O)N1CCP(=O)(c2cc3c(N[C@H](C)c4cccc(C(F)(F)F)c4C)nc(C)nc3c(C)n2)CC1 [Example 146, (R)-1-(4-(2,8-dimethyl-4-((1-(2-methyl-3-(trifluoromethyl)phenyl)ethyl)amino)pyrido[3,4-d]pyrimidin-6-yl)-4-oxido-1,4-azaphosphinan-1-yl)ethan-1-one]
